{"source": "patent US20090298891A1", "about": "“Methods of Treating or Preventing Cancer Using Pyridine Carboxaldehyde Pyridine Thiosemicarbazone Radiosensitizing Agents” (GOVERNMENT OF THE US, AS REPRESENTED BY THE SECRETADY OF …, priority 2005, published 2009)", "key": {"[1]": {"system": "DU145 (prostate carcinoma) cell line", "assay": "Clonogenic assay, DU145", "assay_type": "cell-based, human", "description": "(§1) Cell lines and treatment. Three human tumor cell lines were evaluated: a glioma (U251), a pancreatic carcinoma (PSN1) and a prostate carcinoma (DU145), each was obtained from the Developmental Therapeutics Program, DCTD, NCI. The cell lines were grown in RPMI 1640 (Life Technologies, Rockville, Md.) containing […] (5 mM) and 5% FBS and maintained at 37° C. in an atmosphere of 5% CO2 and 95% room air. Triapine (3-amino-2-carboxaldehyde-pyridine thiosemicarbazone), provided by Vion Pharmaceuticals of New Haven, Conn., was dissolved in dimethylsulfoxide to a stock concentration of 10 mM and stored at −20° C. Cultures were irradiated using a Pantak (Solon, Ohio) X-ray source at a dose rate of 1.55 Gy/minute.\n(§2) Clonogenic assay. Cell cultures were trypsinized to generate a single cell suspension and a specified number of cells were seeded into each well of 6-well tissue culture plates. In the first experiment, drug or vehicle control was, added at specified concentrations, and the plates were irradiated 16 hours later. Immediately after irradiation, the growth media was aspirated, and fresh media was added. In the second experiment, cells were seeded, and irradiated 6 hours after seeding. Immediately after irradiation, the cells were treated with the specified concentration of drug. After 16 hours of exposure, drug was aspirated, and replaced with fresh media. Ten to twelve days after seeding, colonies were stained with crystal violet, and the number of colonies containing at least 50 cells was determined and the surviving fractions were calculated. Survival curves were generated after normalizing for the cytotoxicity generated by drug alone. Data presented are the mean±SEM from at least three independent experiments. Radiation dose enhancement factors (DEFs) represent the ratio of radiation dose required to achieve 10% survival in the control cells and the drug-treated cells."}, "PSN1 tumors": {"system": "PSN1 tumors", "assay": "In vivo tumor growth delay assay, PSN1 xenografts", "set-up": "species or system mice", "description": "(§3) In Vivo Tumor Growth Delay Assay. Male 6 week old athymic nude mice (NCr nu/nu) were used in these studies. Mice, housed in filter-topped cages, were provided autoclaved feed and hyperchlorinated water ad libitum. U251 or PSN1 tumor cells were implanted subcutaneously in the hind leg. Irradiation was performed using a Pantak (Solon, Ohio) irradiator with animals restrained in a custom lead jig, which allowed for the localized irradiation of tumors at the base of the tail. When tumors reached 177 mm^3 (7×7 mm) Triapine (30-60 mg/kg) was delivered by intraperitoneal injection and 6 h later tumors were irradiated with a single dose of 4 or 5 Gy. To obtain growth curves, perpendicular diameter measurements of each tumor were collected every 3 days with calipers, and the volumes were calculated using the formula (L×W×W)/2. Tumors were followed until the group's tumors were greater than 1500 mm^3. Specific tumor growth delay was calculated as the number of days for the treated tumors to grow to 1400 mm^3 minus the number of days for the control group to reach the same size. Each experimental group contained 10 mice and the untreated group contained 15 mice. All animal studies were conducted in accordance with the principles and procedures outlined in the U.S.P.H.S. Guide for the Care and Use of Laboratory Animals in an AAALAC-approved facility under an approved animal protocol.\nIn vivo activity of Triapine in conjunction with radiation was determined through growth delays in mice with subcutaneous human tumor xenografts. Based on the above described in vitro results, xenografts of PSN1 and U251 were evaluated in vivo. Triapine (40 mg/kg) was given 6 hours prior to a single radiation dose (4 or 5 Gy). After 3 volumetric doublings of the PSN1 tumors, Triapine alone yielded a 1.6 day growth delay, and radiation caused a 9.8 day growth delay. […] See, FIG. 8 (U251) and FIG. 9 (PSN1) for a graph of tumor growth delay data."}, "[2]": {"system": "DNA synthesis activity in U251 cells", "assay": "DNA synthesis assay (BrdU incorporation)", "assay_type": "cell-based, human", "details": "after 16 hours of Triapine exposure", "description": "DNA Synthesis Assay. DNA synthesis was quantified as an indirect measure of ribonucleotide reductase activity. A 5-bromo-2′-deoxyuridine (BrdU) incorporation assay kit (#1669915) produced by Roche Applied Science (Mannheim, Germany) was used. Cells were seeded in wells of a black wall 96-well plate and allowed to incubate for 24 hours. Drug was added, and after 16 hours of exposure, 10 μM BrdU pulses were added hourly for 2 hours, according to manufacturer's instructions. After fixation, an anti-BrdU peroxidase antibody conjugate was applied for 90 minutes at room temperature. The conjugate was then rinsed three times, and luminol was added. Chemiluminescence was detected with a Wallac 1420 multilabel counter (Perkin Elmer Life Sciences, Turku, Finland), and data was exported for off-line analysis. Triplicate samples were run for three independent experiments; data is presented as the mean of three experiments±SEM."}, "U251 tumors": {"system": "U251 tumors", "assay": "In vivo tumor growth delay assay, U251 xenografts", "set-up": "species or system mice", "details": "combination of Triapine and radiation", "description": "as §3, with “Each experimental group contained 10 mice and the untreated group contained 15 mice. All animal studies were conducted in accordance with the principles and procedures outlined in the U.S.P.H.S. Guide for the Care and Use of Laboratory Animals in an AAALAC-approved facility under an approved animal protocol.” left out\nIn vivo activity of Triapine in conjunction with radiation was determined through growth delays in mice with subcutaneous human tumor xenografts. Based on the above described in vitro results, xenografts of PSN1 and U251 were evaluated in vivo. […]"}, "[3]": {"system": "PSN1 (pancreatic carcinoma) cell line", "assay": "Clonogenic assay, PSN1", "assay_type": "cell-based, human", "description": "as §1, §2"}, "[4]": {"system": "U251 (human glioma) cell line", "assay": "Clonogenic assay, U251", "assay_type": "cell-based", "description": "as §1, §2"}, "U251 cells": {"system": "U251 cells", "assay": "Cell cycle phase analysis (flow cytometry)", "assay_type": "cell-based, human", "details": "16 hours of Triapine exposure (5 μM)", "description": "Cell Cycle Phase Analysis. Cell cycle phase distribution was analyzed using flow cytometry. Cells were seeded in T75 flasks at subconfluent density and exposed to Triapine, or vehicle for 16 hours, at which time cells were fixated and stained with propidium iodide for flow cytometry analysis at the Clinical Services Program at the National Cancer Institute-Frederick. A two-tailed, paired t-test was performed on the data from the replicated analysis."}}, "data": [{"smiles": "NC(=S)N/N=C/c1ncccc1N", "note": "[Triapine, 3-amino-2-carboxaldehyde-pyridine thiosemicarbazone]", "values": [{"measurement": "Survival following 16 hours of Triapine exposure", "setting": "[1]; DU145, 5 μM, drug alone", "result": 68, "unit": "%"}, {"measurement": "radiosensitization / DEF, Triapine after irradiation", "setting": "[1]; DU145, Triapine for 16 hours after irradiation", "result": "DEFs similar to those obtained when cells were exposed prior to irradiation"}, {"measurement": "dose enhancement factor (DEF)", "setting": "[1]; DU145, Triapine given prior to radiation, ratio of radiation dose for 10% survival", "result": 2.05}, {"measurement": "growth delay", "setting": "PSN1 tumors; Triapine alone, 40 mg/kg intraperitoneal, after 3 volumetric doublings of PSN1 tumors", "result": 1.6, "unit": "days"}, {"measurement": "growth delay", "setting": "PSN1 tumors; combination of Triapine (40 mg/kg, 6 hours prior) and single radiation dose (4 or 5 Gy), PSN1 tumors", "result": 20.9, "unit": "days"}, {"measurement": "DEF (in vivo)", "setting": "PSN1 tumors; combination of Triapine and radiation, PSN1 tumors", "result": 2.0}, {"measurement": "DNA synthesis", "setting": "[2]", "result": "less than 5 % of control"}, {"measurement": "time for DNA synthesis to return to control levels", "setting": "[2]", "result": 7, "unit": "h"}, {"measurement": "growth delay / DEF effect of combination", "setting": "U251 tumors", "result": "a similar effect was observed"}, {"measurement": "Survival following 16 hours of Triapine exposure", "setting": "[3]; PSN1, 3 μM, drug alone", "result": 33, "unit": "%"}, {"measurement": "radiosensitization / DEF, Triapine after irradiation", "setting": "[3]; PSN1, Triapine for 16 hours after irradiation", "result": "DEFs similar to those obtained when cells were exposed prior to irradiation"}, {"measurement": "dose enhancement factor (DEF)", "setting": "[3]; PSN1, Triapine given prior to radiation, ratio of radiation dose for 10% survival", "result": 1.64}, {"measurement": "Survival following 16 hours of Triapine exposure", "setting": "[4]; U251, 5 μM, drug alone", "result": 53, "unit": "%"}, {"measurement": "radiosensitization / DEF, Triapine after irradiation", "setting": "[4]; U251, Triapine for 16 hours after irradiation", "result": "DEFs similar to those obtained when cells were exposed prior to irradiation"}, {"measurement": "dose enhancement factor (DEF)", "setting": "[4]; U251, Triapine given prior to radiation, ratio of radiation dose for 10% survival", "result": 1.50}, {"measurement": "percentage of cells in G1", "setting": "U251 cells", "result": "increased"}, {"measurement": "percentage of cells in G2/M", "setting": "U251 cells", "result": "decreased"}]}]}
